The values below come from patent US8193369B2, “Benzimidazole cannabinoid agonists” (Janssen Pharmaceutica NV, priority 2007, dated 2012).

The target in the experiment is T1, human CB2 (hCB2) receptor (Homo sapiens, UniProt P34972).
T1 construct: expressed in transfected cells; host or cells: CHO-K1
Description: Inhibition of forskolin-activated cAMP production upon activation of human CB2 receptor (HTRF). The class given is cell-based. The following applies: CHO-K1 cells stably transfected with hCB2; 15 μM forskolin; pEC50=-log(EC50); relative to WIN55212-2. As to the method:
D. Pharmacological Examples D.1 Inhibition of cAMP in Response to Activation of the Human CB2 Receptors
Functional activity of the test compounds was assessed by measuring their potency to inhibit forskolin-activated cAMP production upon activation of human CB2 (hCB2) receptor through homogenous time resolved fluorescence (HTRF) assays.
CHO-K1 cells stably transfected with hCB2 were grown up to 80-90% confluence in T175 Falcon flasks in DMEM/NUT MIX F-12 culture medium complemented with 2% Solution A (5.10^6 IU/l penicillin G, 5 g/l streptomycin sulphate, 5.5 g/l pyruvate, 14.6 g/l L-glutamine, 1M NaOH) and 10% foetal calf serum. Before the experiments, medium was removed, cells were washed with PBS/EDTA (140 mM NaCl, 1 mM Na2-EDTA, 8 mM Na2HPO4.2H2O, 8.5 mM KH2PO4, 2.7 mM KCl, 21 mM glucose), resuspended in stimulation buffer (HBSS 1×, IBMX 1 mM, Hepes 5 mM, MgCl2 10 mM, BSA 0.1%, pH 7.4). Cells were diluted to a concentration of 10^6 cells/ml for hCB2 experiments. Assays were performed using the cAMP Dynamic HTRF kit (CIS bio international, France) according to the recommendations of the manufacturer.
For CB2, each well of a 384 flat bottom black polystyrene assay plate (Costar) was filled with 10 μl stimulation buffer containing 15 μM forskolin and either test compound (in 3% DMSO), 3% DMSO or 10 μM Win55212-2 (in 3% DMSO). Then, 20 μl of the diluted hCB2-CHO-K1 cells was added (20,000 cells/well). After 30 minutes incubation in dark at room temperature, 10 μl cAMP-XL665 and 10 μl anti-cAMP cryptate (both at a final dilution of 1/100) was added to the cells.
After equilibration of the reaction mixtures for 1 to 24 hours in dark at room temperature, fluorescence was measured at 665 nm and 620 nm using a Discovery microplate fluorescence counter (Perkin Elmer), and the signal ratio of 665 nm/620 nm was calculated. The signal ratios of the test compounds were expressed relative to the signal ratios of the DMSO control (maximal signal ratio, no inhibition of cAMP) and WIN55212-2 for hCB2, respectively (minimal signal ratio, maximal inhibition of cAMP). From the dose response curves generated for each test compound, the dose at which 50% of the maximal inhibition of cAMP level is observed (EC50, expressed in the Table as pEC50=−log (EC50) values) and the level of inhibition reached with 10 μM of the test compound compared to WIN55212-2 (for hCB2) was calculated.
On the technique in general: Cyclic AMP is a second messenger, typically raised through Gs and lowered through Gi signalling.

T1 sequence (P34972 whole entry): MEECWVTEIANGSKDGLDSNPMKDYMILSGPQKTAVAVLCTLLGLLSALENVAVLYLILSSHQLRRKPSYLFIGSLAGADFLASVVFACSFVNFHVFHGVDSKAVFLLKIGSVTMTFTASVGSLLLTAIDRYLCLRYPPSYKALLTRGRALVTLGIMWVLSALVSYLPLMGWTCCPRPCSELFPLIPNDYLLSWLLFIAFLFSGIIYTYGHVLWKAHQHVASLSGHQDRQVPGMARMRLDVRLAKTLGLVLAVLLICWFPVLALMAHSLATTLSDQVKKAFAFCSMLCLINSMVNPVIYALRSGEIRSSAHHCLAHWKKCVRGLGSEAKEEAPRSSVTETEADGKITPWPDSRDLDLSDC

In general, EC50 refers to the concentration needed to bring the measured effect to its halfway point. A lower EC50 goes with greater potency. `CC(=O)N1CCC(Cn2c(C(C)(C)C)nc3cc(Sc4ccc(C(F)(F)F)cc4)ccc32)CC1` [compound 87] gave an EC50 of around 10 nM.

`CC(=O)N1CCC(Cn2c(C(C)(C)C)nc3cc(S(=O)(=O)c4ccoc4)ccc32)CC1` [compound 103] showed a 50% effective concentration (EC50) of around 3.8 nM.

As for `CC(=O)N1CCC(Cn2c(C(C)(C)C)nc3cc(Sc4cccs4)ccc32)CC1` [compound 66], the EC50 is 2.24 nM.

For `CC(=O)N1CCC(Cn2c(C(C)(C)C)nc3cc(S(=O)(=O)c4ccc(F)c(C#N)c4)ccc32)CC1` [compound 105], the half-maximal effective concentration (EC50) was around 1.29 nM.

Take `CC(=O)N1CCC(Cn2c(C(C)(C)C)nc3cc(S(=O)(=O)c4c(F)cccc4F)ccc32)CC1` [compound 111]: the EC50 is around 16.6 nM.

`CC(=O)N1CCC(Cn2c(C(C)(C)C)nc3cc(Sc4cccc(Cl)c4)ccc32)CC1` [compound 89] had an EC50 of around 0.11 nM.

In the case of `CC(=O)N1CCC(Cn2c(C(C)(C)C)nc3cc(S(=O)(=O)C(C)(C)C#N)ccc32)CC1` [compound 42], a half-maximal effect (EC50) was put at 5.5 nM.

`CC(=O)N1CCC(Cn2c(C(C)(C)C)nc3cc(S(=O)(=O)c4ccc(C#N)cc4)ccc32)CC1` [compound 23] had a 50% effective concentration (EC50) of 3.72 nM.

Take `CCS(=O)(=O)c1ccc2c(c1)nc(C(C)(C)C)n2CC1CCN(C(C)=O)CC1` [compound 1]: a half-maximal effect (EC50) was put at 8.51 nM. Compared with the last compound, the EC50 is about 2.3-fold higher.

Turning to `CC(=O)N1CCC(Cn2c(C(C)(C)C)nc3cc(S(=O)(=O)C(C)(C)c4ccccc4)ccc32)CC1` [compound 55], the EC50 was 93.3 nM. Compared with the last compound, the EC50 is about 11-fold higher.

`CC(=O)N1CCC(Cn2c(C(C)(C)C)nc3cc(S(=O)(=O)Cc4ccc([N+](=O)[O-])cc4)ccc32)CC1` [compound 69] had an EC50 of 5.89 nM.

Turning to `COc1cccc(OC)c1Sc1ccc2c(c1)nc(C(C)(C)C)n2CC1CCN(C(C)=O)CC1` [compound 101], the EC50 was around 0.513 nM.

`CC(C)(C)c1nc2cc(SCCCO)ccc2n1CC1CCN(C=O)CC1` [compound 21] had an EC50 of 5.37 nM.

For the compound `CCC(CC)Sc1ccc2c(c1)nc(C(C)(C)C)n2CC1CCN(C(C)=O)CC1` [compound 51], it took 0.794 nM to reach a half-maximal effect (EC50).

Take `CC(=O)N1CCC(Cn2c(C(C)(C)C)nc3cc(Sc4ccc(F)cc4)ccc32)CC1` [compound 58]: the EC50 is 8.51 nM.

With `CC(=O)N1CCC(Cn2c(C(C)(C)C)nc3cc(Sc4cccc(OCCCC#N)c4)ccc32)CC1` [compound 95], the EC50 was around 2.69 nM.

`COc1ccc(CS(=O)(=O)c2ccc3c(c2)nc(C(C)(C)C)n3CC2CCN(C(C)=O)CC2)cc1` [compound 12] had an EC50 of 158 nM.

`CC(=O)N1CCC(Cn2c(C(C)(C)C)nc3cc(SCCc4ccc(F)cc4)ccc32)CC1` [compound 52]: the 50% effective concentration (EC50) was 3.98 nM.

Take `CC(=O)N1CCC(Cn2c(C(C)(C)C)nc3cc(S(=O)(=O)CCc4ccc(F)cc4)ccc32)CC1` [compound 56]: it took 3.39 nM to reach a half-maximal effect (EC50).

With `CC(=O)N1CCC(Cn2c(C(C)(C)C)nc3cc(S(=O)(=O)c4cccnc4)ccc32)CC1` [compound 62], the 50% effective concentration (EC50) was 5.25 nM.

For `CC(=O)N1CCC(Cn2c(C(C)(C)C)nc3cc(SCc4ccc(F)cc4)ccc32)CC1` [compound 17], a half-maximal response (EC50) required 0.794 nM.

The compound `CC(=O)N1CCC(Cn2c(C(C)(C)C)nc3cc(SC4CCCC4)ccc32)CC1` [compound 32] showed an EC50 of 1.29 nM.

`CC(=O)N1CCC(Cn2c(C(C)(C)C)nc3cc(SCCC#N)ccc32)CC1` [compound 15] gave an EC50 of 10 nM.

For `COCCSc1ccc2c(c1)nc(C(C)(C)C)n2CC1CCN(C=O)CC1` [compound 22], the 50% effective concentration (EC50) is 7.08 nM.

Compound `CC(=O)N1CCC(Cn2c(C(C)(C)C)nc3cc(S(=O)(=O)c4cccc(OCCCC#N)c4)ccc32)CC1` [compound 96] showed an EC50 of 3.55 nM.

The compound `CC(=O)N1CCC(Cn2c(C(C)(C)C)nc3cc(Sc4ccccc4Cl)ccc32)CC1` [compound 70] had a 50% effective concentration (EC50) of 0.0871 nM.

Compound `CC(=O)N1CCC(Cn2c(C(C)(C)C)nc3cc(S(=O)(=O)c4ccc[n+]([O-])c4)ccc32)CC1` [compound 63] had an EC50 of 15.5 nM.

On to `CC(=O)N1CCC(Cn2c(C(C)(C)C)nc3cc(S(=O)(=O)Cc4ccc(N(C)C(C)=O)cc4)ccc32)CC1` [compound 80], for which the EC50 was around 46.8 nM.
